pEC50: −log10 of the molar value. Structures can show the parent of a compound that is named as a salt.
Biological target: T1, abc isoform of human TMEM16A channel expressed in CHO cells (Homo sapiens, UniProt Q5XXA6, DEL476-501)
T1 construct: expressed in transfected cells; host or cells: CHO cells, doxycycline-inducible expression under Blasticidin/Zeocin selection
T1 sequence (Q5XXA6 with tags, fused parts or gaps isoform Q5XXA6-5 DEL539-564): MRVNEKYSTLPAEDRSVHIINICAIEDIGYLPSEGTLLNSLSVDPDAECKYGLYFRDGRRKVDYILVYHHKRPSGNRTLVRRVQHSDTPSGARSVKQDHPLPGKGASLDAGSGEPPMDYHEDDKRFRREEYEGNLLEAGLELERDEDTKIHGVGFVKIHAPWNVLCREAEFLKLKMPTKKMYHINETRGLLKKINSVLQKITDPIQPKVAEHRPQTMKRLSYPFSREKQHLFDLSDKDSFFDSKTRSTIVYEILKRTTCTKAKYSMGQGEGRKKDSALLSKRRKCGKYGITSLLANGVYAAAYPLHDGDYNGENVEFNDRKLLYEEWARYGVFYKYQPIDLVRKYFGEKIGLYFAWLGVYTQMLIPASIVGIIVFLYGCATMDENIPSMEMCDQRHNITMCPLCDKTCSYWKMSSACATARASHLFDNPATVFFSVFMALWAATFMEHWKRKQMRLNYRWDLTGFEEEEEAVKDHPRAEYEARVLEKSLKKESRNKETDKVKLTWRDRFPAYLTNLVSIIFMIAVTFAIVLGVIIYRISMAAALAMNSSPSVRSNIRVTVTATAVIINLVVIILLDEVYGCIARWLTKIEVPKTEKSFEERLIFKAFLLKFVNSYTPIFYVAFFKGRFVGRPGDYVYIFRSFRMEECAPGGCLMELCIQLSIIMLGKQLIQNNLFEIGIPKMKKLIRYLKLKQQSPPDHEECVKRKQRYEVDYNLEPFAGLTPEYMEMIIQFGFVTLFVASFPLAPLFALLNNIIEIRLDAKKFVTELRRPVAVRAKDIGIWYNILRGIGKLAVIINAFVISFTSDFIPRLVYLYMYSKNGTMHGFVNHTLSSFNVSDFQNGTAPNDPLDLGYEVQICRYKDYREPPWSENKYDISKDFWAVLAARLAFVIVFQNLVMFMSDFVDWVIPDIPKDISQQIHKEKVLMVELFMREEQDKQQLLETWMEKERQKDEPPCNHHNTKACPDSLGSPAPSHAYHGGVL
Test: Automated patch clamping (QPatch) assay to measure TMEM16A activity in whole-cell
Format: cell-based
Conditions: for pEC50: CHO cells expressing human TMEM16A (abc), whole-cell automated patch clamp, Hill fit, read-out: TMEM16A QPATCH assay EC50 V3 EC50; for Emax: CHO, read-out: TMEM16A QPATCH assay EC50 V3 Assay Window (% TMEM16A max activation); for Emax / TMEM16A QPATCH assay EC50 V3 Assay Window (% TMEM16A max activation): maximum current at highest dose relative to reference potentiator at maximal concentration (upper limit) and vehicle (lower limit)
Outline: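 CHO cells with doxycycline-induced (1 μg/mL, 18-24 h) human TMEM16A abc isoform; QPatch whole-cell recording, hold −70 mV, step +70 mV 1500 ms, then −90 to +70 mV ramp. Compounds in 0.3% DMSO; EC50 by Hill fit; % max activation relative to vehicle baseline and reference potentiator maximum.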

pEC50 | Emax | TMEM16A QPATCH assay EC50 V3 Assay Window (% TMEM16A max activation) | SMILES
6.12 | 90% | – | CCC(CC)NC(=O)c1cnc(-c2cccc(-c3cc(C(=O)N4CCC(C(=O)OC)C4)n[nH]3)c2)o1 (centres unmarked) [Example 3.30, Methyl 1-(5-(3-(5-(Pentan-3-Ylcarbamoyl)Oxazol-2-Yl)Phenyl)-1H-Pyrazole-3-Carbonyl)Pyrrolidine-3-Carboxylate]
7.52 | 100% | – | CCOC(=O)[C@@H](NC(=O)c1cnc(-c2cccc(-c3cc(C(=O)NC(C4CC4)C4CC4)n(CC(C)(C)O)n3)c2)o1)C(C)C [Example 9.6, (S)-Ethyl 2-(2-(3-(5-((Dicyclopropylmethyl)Carbamoyl)-1-(2-Hydroxy-2-Methylpropyl)-1 H-Pyrazol-3-Yl)Phenyl)Oxazole-5-Carboxamido)-3-Methylbutanoate]
6.16 | 86% | – | CCC(CC)NC(=O)c1cnc(-c2cccc(-c3cc(C(=O)N[C@@H](C)C(=O)OC)n[nH]3)c2)o1 [Example 3.42, (S)-Methyl 2-(5-(3-(5-(Pentan-3-Ylcarbamoyl)Oxazol-2-Yl)Phenyl)-1H-Pyrazole-3-Carboxamido)Propanoate]
6.10 | 186% | – | CCC(CC)NC(=O)c1cnc(-c2cccc(-c3cn(CC(O)C(F)(F)F)c(C(=O)N[C@@H](C)C4CC4)n3)c2)o1 (stereo partly drawn) [Example 17.0, 2-(3-(2-(((S)-1-Cyclopropylethyl)Carbamoyl)-1-(3,3,3-Trifluoro-2-Hydroxypropyl)-1H-Imidazol-4-Yl)Phenyl)-N-(Pentan-3-Yl)Oxazole-5-Carboxamide]
7.05 | 69% | – | COC(=O)[C@@H](NC(=O)c1cnc(-c2cccc(-c3cc(C(=O)N[C@@H](C)C4CC4)n[nH]3)c2)o1)C(C)C [Example 1.7, (S)-Methyl 2-(2-(3-(3-(((S)-1-Cyclopropylethyl)Carbamoyl)-1H-Pyrazol-5-yl)Phenyl)Oxazole-5-Carboxamido)-3-Methylbutanoate]
7.40 | – | 83% | C[C@H](NC(=O)c1cc(-c2cccc(-c3ncc(C(=O)NC(C4CC4)C4CC4)o3)c2)nn1CC(O)C(F)(F)F)C1CC1 (single isomer, unassigned) [Example 9.2 (ii)]
6.52 | 140% | – | CCC(CC)NC(=O)c1cnc(-c2cccc(-c3cc(C(=O)NC(COC)C4CC4)n[nH]3)c2)o1 (centres unmarked) [Example 3.1, 2-(3-(3-((1-Cyclopropyl-2-Methoxyethyl)Carbamoyl)-1H-Pyrazol-5-Yl)Phenyl)-N-(Pentan-3-Yl)Oxazole-5-Carboxamide]
6.49 | 101% | – | C[C@@H](NC(=O)c1cnc(-c2cccc(-c3cc(C(=O)N[C@H](C)C4CC4)n(CCO)n3)c2)o1)C1CC1 [Example 10.1, N-((R)-1-Cyclopropylethyl)-2-(3-(5-(((R)-1-Cyclopropylethyl)Carbamoyl)-1-(2-Hydroxyethyl)-1H-Pyrazol-3-yl)Phenyl)Oxazole-5-Carboxamide]
7.15 | 59% | – | CCC(NC(=O)c1cnc(-c2cccc(-c3cc(C(=O)N[C@@H](C)C4CC4)[nH]n3)c2)o1)C1CC1 (stereo partly drawn) [Example 1.48, 2-(3-(5-(((S)-1-Cyclopropylethyl)Carbamoyl)-1H-Pyrazol-3-Yl)Phenyl)-N-(1-Cyclopropylpropyl)Oxazole-5-Carboxamide]
6.89 | – | 115% | C[C@H](NC(=O)c1cc(-c2cccc(-c3ncc(C(=O)NC(C4CC4)C4CC4)o3)c2)nn1CC(O)C(F)(F)F)C1CC1 (single isomer, unassigned) [Example 9.2 (i)]
7.22 | 106% | – | CCOC(=O)[C@H](NC(=O)c1cc(-c2cccc(-c3ncc(C(=O)NC(CC)CC)o3)c2)[nH]n1)c1ccccc1 [Example 3.59, (R)-Ethyl 2-(5-(3-(5-(Pentan-3-Ylcarbamoyl)Oxazol-2-Yl)Phenyl)-1H-Pyrazole-3-Carboxamido)-2-Phenylacetate Trifluoroacetate]
6.62 | 155% | – | CCC(CC)NC(=O)c1cnc(-c2cccc(-c3nc(C(=O)NC(CC)CC)n(CCOC)n3)c2)o1 [Example 15.1, 2-(3-(1-(2-Methoxyethyl)-5-(Pentan-3-Ylcarbamoyl)-1H-1,2,4-Triazol-3-Yl)Phenyl)-N-(Pentan-3-Yl)Oxazole-5-Carboxamide]
6.92 | 74% | – | CCC(CC)NC(=O)c1cnc(-c2cccc(-c3cc(C(=O)NC4CCCC4)n[nH]3)c2)o1 [Example 3.48, 2-(3-(3-(Cyclopentylcarbamoyl)-1 H-Pyrazol-5-Yl)Phenyl)-N-(Pentan-3-yl)Oxazole-5-Carboxamide]
6.70 | 106% | – | CCC(CC)NC(=O)c1cnc(-c2cccc(-c3cc(C(=O)N[C@@H](C)C4CC4)n(CC(C)(C)O)n3)c2)o1 [Example 8.0, (S)-2-(3-(5-((1-Cyclopropylethyl)Carbamoyl)-1-(2-Hydroxy-2-Methylpropyl)-1H-Pyrazol-3-Yl)Phenyl)-N-(Pentan-3-Yl)Oxazole-5-Carboxamide]
6.40 | 143% | – | CCC(CC)NC(=O)c1cnc(-c2cccc(-c3cc(C(=O)N[C@@H](C)C4CC4)n(C4COC4)n3)c2)o1 [Example 9.3, (S)-2-(3-(5-((1-Cyclopropylethyl)Carbamoyl)-1-(Oxetan-3-Yl)-1H-Pyrazol-3-Yl)Phenyl)-N-(Pentan-3-Yl)Oxazole-5-Carboxamide]
6.51 | 90% | – | CCOC(=O)[C@@H](NC(=O)c1cnc(-c2cccc(-c3cc(C(=O)NC(CC)CC)n(CCN4CCOCC4)n3)c2)o1)C(C)C [Example 6.0, (S)-ethyl 3-methyl-2-(2-(3-(1-(2-morpholinoethyl)-5-(pentan-3-ylcarbamoyl)-1H-pyrazol-3-yl)phenyl)oxazole-5-carboxamido)butanoate]
6.92 | 154% | – | CCOC(=O)[C@@H](NC(=O)c1cnc(-c2cccc(-c3cc(C(=O)NC(C4CC4)C4CC4)n(CCCO)n3)c2)o1)C(C)C [Example 4.5, (S)-Ethyl 2-(2-(3-(5-((Dicyclopropylmethyl)Carbamoyl)-1-(3-Hydroxypropyl)-1 H-Pyrazol-3-Yl)Phenyl)Oxazole-5-Carboxamido)-3-Methylbutanoate]
6.82 | 75% | – | CCC(CC)NC(=O)c1cc(-c2cccc(-c3ncc(C(=O)N[C@H](C(=O)OC)C(C)C)o3)c2)[nH]n1 [Example 1.47, (S)-Methyl 3-Methyl-2-(2-(3-(3-(Pentan-3-Ylcarbamoyl)-1H-Pyrazol-5-yl)Phenyl)Oxazole-5-Carboxamido)Butanoate]
6.03 | 92% | – | CCC(CC)NC(=O)c1cc(-c2cccc(-c3ncc(C(=O)N[C@@H](C)c4ccccc4)o3)c2)[nH]n1 [Example 1.21, (S)-2-(3-(3-(Pentan-3-Ylcarbamoyl)-1H-Pyrazol-5-Yl)Phenyl)-N-(1-Phenylethyl)Oxazole-5-Carboxamide]
6.06 | 77% | – | CCC(CC)NC(=O)c1cc(-c2cccc(-c3ncc(C(=O)NCC(=O)OC(C)C)o3)c2)[nH]n1 [Example 1.32, Isopropyl 2-(2-(3-(3-(Pentan-3-Ylcarbamoyl)-1 H-Pyrazol-5-yl)Phenyl)Oxazole-5-Carboxamido)Acetate]

SMILES | pEC50 | Emax | TMEM16A QPATCH assay EC50 V3 Assay Window (% TMEM16A max activation)
CCC(CC)NC(=O)c1cc(-c2cccc(-c3ncc(C(=O)N[C@@H](COC(C)(C)C)C(=O)OC(C)(C)C)o3)c2)[nH]n1 [Example 1.50, (S)-Tert-Butyl 3-(Tert-Butoxy)-2-(2-(3-(3-(Pentan-3-Ylcarbamoyl)-1H-Pyrazol-5-Yl)Phenyl)Oxazole-5-Carboxamido)Propanoate Trifluoroacetate] | 6.35 | 115% | –
CCC(CC)NC(=O)c1cnc(-c2cccc(-c3cc(C(=O)N[C@@H](C#N)CC)n[nH]3)c2)o1 (single isomer, unassigned) [Example 3.26, (R)-2-(3-(3-((1-Cyanopropyl)Carbamoyl)-1H-Pyrazol-5-Yl)Phenyl)-N-(Pentan-3-Yl)Oxazole-5-Carboxamide or (S)-2-(3-(3-((1-Cyanopropyl)Carbamoyl)-1H-Pyrazol-5-Yl)Phenyl)-N-(Pentan-3-Yl)Oxazole-5-Carboxamide] | 6.62 | – | 109%

Reference: patent publication US20220306617A1, “SUBSTITUTED 1,3-PHENYL HETEROARYL DERIVATIVES AND THEIR USE IN THE TREATMENT OF DISEASE” (NOVARTIS AG, priority 2019, published 2022)
